US20250101013A1, “FUNCTIONALIZED AMINOTHIAZOLES” (LEADXPRO AG, priority 2022, published 2025)

How the values were obtained:
Assay type in all cases: cell-based
Conditions in all cases: HEK293 cells expressing recombinant human receptor
human A2B receptor = human A2B receptor (Homo sapiens (Human), UniProt P29275); assay: Intracellular cAMP functional assay (HTRF), A2B
Procedure: (§1) Compound activity in human adenosine receptors A2A, A2B, A1, and A3 was measured in this functional cellular assay using an HTRF kit (Perkin Elmer). […] Dose response curves were performed in parallel with the reference compounds. The reference compounds used for A2A, A2B, A1, and A3, were respectively NECA, ZM241385, DPCPX, MRS. 12 μl of cells were mixed with 6 μl of the test compound at increasing concentrations and then incubated 10 min. Thereafter 6 μl of the reference agonist was added at a final concentration corresponding to the historical EC80. The plates were then incubated for 30 min at room temperature. After addition of the lysis buffer and 1 hour incubation, cAMP concentrations were estimated, according to the manufacturer specification, with the HTRF kit. The results showing functional activity of embodied compounds on adenosine receptors are shown below in Table 1.

human A1 receptor = human A1 receptor (Homo sapiens (Human), UniProt P30542); assay: Intracellular cAMP functional assay (HTRF), A1
human A1 receptor, sequence (P30542 whole entry): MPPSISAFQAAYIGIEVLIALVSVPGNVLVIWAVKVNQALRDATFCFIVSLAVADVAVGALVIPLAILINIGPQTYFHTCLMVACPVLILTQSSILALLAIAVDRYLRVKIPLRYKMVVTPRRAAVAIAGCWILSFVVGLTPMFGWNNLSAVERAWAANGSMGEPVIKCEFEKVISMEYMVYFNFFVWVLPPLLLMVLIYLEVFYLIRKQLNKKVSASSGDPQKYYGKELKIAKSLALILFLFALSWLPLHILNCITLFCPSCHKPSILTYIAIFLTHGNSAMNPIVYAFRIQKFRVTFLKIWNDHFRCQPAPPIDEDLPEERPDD
Procedure: as §1

human A3 receptor = human A3 receptor (Homo sapiens (Human), UniProt P0DMS8); assay: Intracellular cAMP functional assay (HTRF), A3
human A3 receptor, sequence (P0DMS8 whole entry): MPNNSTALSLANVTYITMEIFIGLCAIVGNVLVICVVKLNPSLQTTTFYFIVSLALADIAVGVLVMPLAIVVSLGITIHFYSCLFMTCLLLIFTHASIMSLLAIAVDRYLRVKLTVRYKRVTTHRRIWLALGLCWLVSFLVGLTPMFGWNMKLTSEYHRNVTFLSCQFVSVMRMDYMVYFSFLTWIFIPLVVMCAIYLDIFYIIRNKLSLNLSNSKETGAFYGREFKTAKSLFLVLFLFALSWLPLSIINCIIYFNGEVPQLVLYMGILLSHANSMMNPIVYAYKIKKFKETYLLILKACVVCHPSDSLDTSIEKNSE
Procedure: as §1

human A2A receptor = human A2A receptor (Homo sapiens (Human), UniProt P29274); assay: Intracellular cAMP functional assay (HTRF), A2A
human A2A receptor, sequence (P29274 whole entry): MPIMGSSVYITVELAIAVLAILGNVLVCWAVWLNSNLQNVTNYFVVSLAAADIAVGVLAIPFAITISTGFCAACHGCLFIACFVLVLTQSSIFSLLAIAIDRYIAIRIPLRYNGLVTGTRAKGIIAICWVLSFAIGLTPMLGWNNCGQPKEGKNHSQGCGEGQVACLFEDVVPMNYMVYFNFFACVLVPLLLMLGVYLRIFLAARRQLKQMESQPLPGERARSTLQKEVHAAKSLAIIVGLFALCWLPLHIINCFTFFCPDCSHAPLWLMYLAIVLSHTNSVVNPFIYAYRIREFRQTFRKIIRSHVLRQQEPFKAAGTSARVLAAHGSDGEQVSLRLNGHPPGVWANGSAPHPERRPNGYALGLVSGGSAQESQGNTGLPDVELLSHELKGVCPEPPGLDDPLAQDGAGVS
Procedure: as §1

human A2B receptor, sequence (P29275 whole entry): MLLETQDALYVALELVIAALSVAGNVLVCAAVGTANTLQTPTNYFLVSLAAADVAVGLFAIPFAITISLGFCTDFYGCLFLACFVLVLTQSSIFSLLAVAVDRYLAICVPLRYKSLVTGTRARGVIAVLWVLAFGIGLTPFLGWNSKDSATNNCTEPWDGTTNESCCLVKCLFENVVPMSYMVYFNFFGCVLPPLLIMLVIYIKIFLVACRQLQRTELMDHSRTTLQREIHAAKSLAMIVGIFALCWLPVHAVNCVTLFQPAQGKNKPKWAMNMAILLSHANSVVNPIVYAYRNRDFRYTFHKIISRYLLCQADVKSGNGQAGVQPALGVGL

| EC50 (human A2B receptor) | EC50 (human A1 receptor) | EC50 (human A3 receptor) | EC50 (human A2A receptor) | SMILES |
| --- | --- | --- | --- | --- |
| 0.3 nM | 0.78 nM | > 20000 nM | 78.9 nM | N#Cc1cccc(-c2nc(Nc3n[nH]c(C4CC4)n3)sc2-c2ccncc2F)c1 [Compound 2, 3-{2-[(5-cyclopropyl-1H-1,2,4-triazol-3-yl)amino]-5-(3-fluoropyridin-4-yl)-1,3-thiazol-4-yl}benzonitrile] |
| 0.38 nM | 1.8 nM | > 20000 nM | 119 nM | Cc1cnccc1-c1sc(Nc2n[nH]c(C3CC3)n2)nc1-c1cccc(C#N)c1 [Compound 3, 3-{2-[(5-Cyclopropyl-1H-1,2,4-Triazol-3-Yl)Amino]-5-(3-Methylpyridin-4-Yl)-1,3-Thiazol-4-Yl}Benzonitrile] |
| 0.99 nM | 16.4 nM | > 20000 nM | 3890 nM | Cc1cc(-c2sc(Nc3n[nH]c(C4CC4)n3)nc2-c2cccc(C#N)c2)c(C)cn1 [Compound 4, 3-{2-[(5-Cyclopropyl-1H-1,2,4-Triazol-3-Yl)Amino]-5-(2,5-Dimethylpyridin-4-Yl)-1,3-Thiazol-4-Yl}Benzonitrile] |
| 0.76 nM | 2.3 nM | 2350 nM | 478 nM | N#Cc1cccc(-c2nc(Nc3n[nH]c(C4CC4)n3)sc2-c2ccncc2Cl)c1 [Compound 5, 3-[5-(3-Chloropyridin-4-Yl)-2-[(5-Cyclopropyl-1H-1,2,4-Triazol-3-Yl)Amino]-1,3-Thiazol-4-Yl]Benzonitrile] |
| 0.84 nM | 1.2 nM | 2060 nM | 206 nM | Cc1nccc(-c2sc(Nc3n[nH]c(C4CC4)n3)nc2-c2cccc(C#N)c2)c1C [Compound 6, 3-{2-[(5-Cyclopropyl-1H-1,2,4-Triazol-3-Yl)Amino]-5-(2,3-Dimethylpyridin-4-Yl)-1,3-Thiazol-4-Yl}Benzonitrile] |
| 1.4 nM | 1.7 nM | 1740 nM | 24.4 nM | Cc1cc(-c2sc(Nc3n[nH]c(C4CC4)n3)nc2-c2cccc(C#N)c2)ccn1 [Compound 7, 3-{2-[(5-Cyclopropyl-1H-1,2,4-Triazol-3-Yl)Amino]-5-(2-Methylpyridin-4-Yl)-1,3-Thiazol-4-Yl}Benzonitrile] |
| 2.9 nM | 107 nM | > 20000 nM | > 10000 nM | Cc1nccn1-c1sc(Nc2n[nH]c(C3CC3)n2)nc1-c1cccc(C#N)c1 [Compound 8, 3-{2-[(5-Cyclopropyl-1H-1,2,4-Triazol-3-Yl)Amino]-5-(2-Methyl-1H-Imidazol-1-Yl)-1,3-Thiazol-4-Yl}Benzonitrile] |
| 3.3 nM | 145 nM | 2350 nM | > 10000 nM | Cc1nccn1-c1sc(Nc2nc[nH]n2)nc1-c1cccc(C#N)c1 [Compound 9, 3-[5-(2-Methyl-1H-Imidazol-1-Yl)-2-[(1H-1,2,4-Triazol-3-Yl)Amino]-1,3-Thiazol-4-Yl]Benzonitrile] |
| 2.8 nM | 65 nM | > 20000 nM | > 10000 nM | Cc1cc(-c2sc(Nc3n[nH]c(C)n3)nc2-c2cccc(C#N)c2)c(C)cn1 [Compound 13, 3-[5-(2,5-Dimethylpyridin-4-Yl)-2-[(5-Methyl-1H-1,2,4-Triazol-3-Yl)Amino]-1,3-Thiazol-4-Yl]Benzonitrile] |
| 3 nM | 36.1 nM | > 20000 nM | > 10000 nM | Cc1cc(-c2sc(Nc3n[nH]c(CO)n3)nc2-c2cccc(C#N)c2)c(C)cn1 [Compound 14, 3-[5-(2,5-Dimethylpyridin-4-Yl)-2-{[5-(Hydroxymethyl)-1H-1,2,4-Triazol-3-Yl]Amino}-1,3-Thiazol-4-Yl]Benzonitrile] |
| 2.2 nM |  |  | 61 nM | CCc1nccn1-c1sc(Nc2n[nH]c(C)n2)nc1-c1cccc(C#N)c1 [Compound 16, 3-[5-(2-Ethyl-1H-Imidazol-1-Yl)-2-[(5-Methyl-1H-1,2,4-Triazol-3-Yl)Amino]-1,3-Thiazol-4-Yl]Benzonitrile] |
| 2.4 nM |  |  | 100 nM | N#Cc1cccc(-c2nc(Nc3n[nH]c(C4CC4)n3)sc2-n2ccnc2CO)c1 [Compound 17, 3-{2-[(5-Cyclopropyl-1H-1,2,4-Triazol-3-Yl)Amino]-5-[2-(Hydroxymethyl)-1H-Imidazol-1-Yl]-1,3-Thiazol-4-Yl}Benzonitrile] |
| 33.4 nM |  |  | > 10000 nM | Cc1nccn1-c1sc(Nc2n[nH]c(C3CC3)n2)nc1-c1cc(C#N)ccc1F [Compound 18, 3-{2-[(5-Cyclopropyl-1H-1,2,4-Triazol-3-Yl)Amino]-5-(2-Methyl-1H-Imidazol-1-Yl)-1,3-Thiazol-4-Yl}-4-Fluorobenzonitrile] |
| 2.01 nM | 885 nM | > 3400 nM | 5760 nM | N#Cc1cccc(-c2nc(Nc3nc[nH]n3)sc2-n2ccnc2CO)c1 [Compound 19, 3-{5-[2-(Hydroxymethyl)-1H-Imidazol-1-Yl]-2-[(1H-1,2,4-Triazol-3-Yl)Amino]-1,3-Thiazol-4-Yl}Benzonitrile] |
| 1.26 nM | 360 nM | > 30000 nM | 3410 nM | CCc1nc(Nc2nc(-c3cccc(C#N)c3)c(-n3ccnc3CO)s2)n[nH]1 [Compound 20, 3-{2-[(5-Ethyl-1H-1,2,4-Triazol-3-Yl)Amino]-5-[2-(Hydroxymethyl)-1H-Imidazol-1-Yl]-1,3-Thiazol-4-Yl}Benzonitrile] |
| 1.64 nM | > 30000 nM | > 30000 nM | 6980 nM | Cc1nc(Nc2nc(-c3cccc(C#N)c3)c(-n3ccnc3CO)s2)n[nH]1 [Compound 21, 3-{5-[2-(Hydroxymethyl)-1H-Imidazol-1-Yl]-2-[(5-Methyl-1H-1,2,4-Triazol-3-Yl)Amino]-1,3-Thiazol-4-Yl}Benzonitrile] |
| 0.6 nM | 2.3 nM | > 30000 nM |  | Cc1cnccc1-c1sc(Nc2nc[nH]n2)nc1-c1cccc(C#N)c1 [Compound 22, 3-{5-(3-Methylpyridin-4-Yl)-2-[(1H-1,2,4-Triazol-3-Yl)Amino]-1,3-Thiazol-4-Yl}Benzonitrile] |
| 6.7 nM | 115 nM | > 30000 nM |  | Cc1cnncc1-c1sc(Nc2n[nH]c(C3CC3)n2)nc1-c1cccc(C#N)c1 [Compound 23, 3-{2-[(5-Cyclopropyl-1H-1,2,4-Triazol-3-Yl)Amino]-5-(5-Methylpyridazin-4-Yl)-1,3-Thiazol-4-Yl}Benzonitrile] |
| 2.3 nM | 24.1 nM | > 30000 nM |  | N#Cc1cccc(-c2nc(Nc3n[nH]c(C4CC4)n3)sc2-c2ccncn2)c1 [Compound 24, 3-{2-[(5-Cyclopropyl-1H-1,2,4-Triazol-3-Yl)Amino]-5-(Pyrimidin-4-Yl)-1,3-Thiazol-4-Yl}Benzonitrile] |
| 2.4 nM | 2.6 nM | > 30000 nM |  | N#Cc1cccc(-c2nc(Nc3n[nH]c(C4CC4)n3)sc2-c2ccnnc2)c1 [Compound 25, 3-{2-[(5-Cyclopropyl-1H-1,2,4-Triazol-3-Yl)Amino]-5-(Pyridazin-4-Yl)-1,3-Thiazol-4-Yl}Benzonitrile] |
| 0.7 nM | 0.8 nM | > 30000 nM |  | N#Cc1cccc(-c2nc(Nc3n[nH]c(C4CC4)n3)sc2-c2ccncc2)c1 [Compound 26, 3-{2-[(5-Cyclopropyl-1H-1,2,4-Triazol-3-Yl)Amino]-5-(Pyridin-4-Yl)-1,3-Thiazol-4-Yl}Benzonitrile] |
| 1.7 nM | 20.7 nM | > 30000 nM |  | Cc1cncnc1-c1sc(Nc2n[nH]c(C3CC3)n2)nc1-c1cccc(C#N)c1 [Compound 27, 3-{2-[(5-Cyclopropyl-1H-1,2,4-Triazol-3-Yl)Amino]-5-(5-Methylpyrimidin-4-Yl)-1,3-Thiazol-4-Yl}Benzonitrile] |
| 0.4 nM | 4.8 nM | > 30000 nM | 1.1 nM | Cn1cc(-c2sc(Nc3n[nH]c(C4CC4)n3)nc2-c2cccc(C#N)c2)ccc1=O [Compound 29, 3-{2-[(5-Cyclopropyl-1H-1,2,4-Triazol-3-Yl)Amino]-5-(1-Methyl-6-Oxo-1,6-Dihydropyridin-3-Yl)-1,3-Thiazol-4-Yl}Benzonitrile] |
